Patent US20120238019A1, “STEM CELL CULTURE MEDIA FOR MAINTAINING STEMNESS OR INDUCING DIFFERENTIATION OF STEM CELLS” (COLLEGE OF MEDICINE POCHON CHA UNIVERSITY INDUSTRY-ACADEMIC …, priority 2011, published 2012)

Columns and labels:
[1] = system: human embryonic stem cells (CHA6 cell line); test: Evaluation of stemness of stem cells cultured in MEF medium (differentiation-inducing) containing PKC inhibitor; type: cell-based; conditions: 5 to 7 days
Method: (§1) Colony clumps (5 colony clumps) of human embryonic stem cells (CHA6 cell line, CHA Medical University, Korea) were seeded to each wells of a 96-well plate coated with Matrigel (BD Biosciences, USA). A differentiation-inducing medium, i.e., MEF medium [Dulbecco's Modified Eagle Medium (DMEM) containing high glucose (WeIGENE, Korea) supplemented with 10% (v/v) FBS (WeIGENE, Korea), 1% (v/v) Penicillin/streptomycin (Caisson), 1% (v/v) NEAA (GIBCO), 0.1 mM beta-mercaptoethanol (GIBCO)], was added to the each wells, which were then cultured at about 37° C., in about 5.0% CO2 incubator. The culture was performed for 5 to 7 days, while replacing the medium with a new medium containing 5 uM of 3-[1-[3-(dimethylamino)propyl]-5-methoxy-1H-indol-3-yl]-4-(1H-indol-3-yl)-1H-pyrrole-2,5-dione)(Gö6983, Calbiochem) as a PKC inhibitor, everyday.
As a control, human embryonic stem cells were cultured in the MEF medium without the PKC inhibitor. And also, human embryonic stem cells were cultured in a differentiation-inhibiting medium, i.e., mTeSR-1 medium containing bFGF, TGF-beta, LiCl, GABA, and pipecolic acid (StemCell Technologies, USA). […]

[2] = system: human embryonic stem cells (CHA6 cell line); test: Evaluation of stemness of stem cells cultured in non-conditioned medium containing PKC inhibitor; type: cell-based
Method: as §1, with “The culture was performed for 5 to 7 days, while replacing the medium with a new medium containing 5 uM of 3-[1-[3-(dimethylamino)propyl]-5-methoxy-1H-indol-3-yl]-4-(1H-indol-3-yl)-1H-pyrrole-2,5-dione)(Gö6983, Calbiochem) as a PKC inhibitor, everyday.” left out
Evaluations of stemness were also performed in accordance with the same procedures as in the above (1), using a non-conditioned medium [DMEM/F-12 high-glucose (GIBCO) supplemented with 20% (v/v) knockout serum replacement (GIBCO), 1% (v/v) Penicillin/streptomycin (Caisson), 1% (v/v) NEAA(GIBCO), and 0.1 mM beta-mercaptoethanol (GIBCO)], instead of the MEF medium. In addition, expression levels of Oct4 (Octamer Binding Transcription Factor-4), which is another un-differentiated cell marker, were also evaluated through immunostaining with antibody against Oct4.

[3] = system: human embryonic stem cells (CHA6 cell line); test: Evaluation of differentiation of stem cells cultured in mTeSR-1 medium containing PKC activator; type: cell-based
Method: Colony clumps (5 colony clumps) of human embryonic stem cells (CHA6 cell line, CHA Medical University, Korea) were seeded to each wells of a 96-well plate coated with Matrigel (BD Biosciences, USA). A undifferentiation-maintaining medium, i.e., mTeSR-1 medium containing bFGF, TGF-beta, LiCl, GABA, and pipecolic acid (StemCell Technologies, USA), was added to the each wells, which were then cultured at about 37° C., in about 5.0% CO2 incubator. The culture was performed for 5 to 7 days, while replacing the medium with a new medium containing 10 nM of 12-O-tetradecanoylphorbol-13-acetate (TPA) as a PKC activator, everyday. As a control, human embryonic stem cells were cultured in the mTeSR-1 medium without the PKC activator. And also, human embryonic stem cells were cultured in the mTeSR-1 medium treated with both 10 nM of TPA and 5 uM of Go6983.
The cells cultured in the mTeSR-1 medium formed colony shapes, which were conglomerating each other, without differentiation (a in FIG. 3).
As a result of alkaline phosphatase staining, the staining level and colony shape of the cells cultured in the mTeSR-1 medium were similar to those of undifferentiated stem cells (d in FIG. 3).

[4] = system: human embryonic stem cells (CHA6 cell line); test: Evaluation of differentiation of stem cells in other undifferentiation-maintaining mediums containing PKC activator; type: cell-based; conditions: FIG. 4
Method: Colony clumps (5 colony clumps) of human embryonic stem cells (CHA6 cell line, CHA Medical University, Korea) were seeded to each wells of a 96-well plate coated with Matrigel (BD Biosciences, USA). […] The culture was performed for 5 to 7 days, while replacing the medium with a new medium containing 10 nM of 12-O-tetradecanoylphorbol-13-acetate (TPA) as a PKC activator, everyday. […]
Evaluations of differentiation were also performed in accordance with the same procedures as in the above (1), using other undifferentiation-maintaining mediums, [i.e., Matrigel (extracellular matrix)/MEF-conditioned medium (Home made; Serum-free media [80% (v/v) DMEM/F12 (GIBCO), 20% (v/v) Knockout serum replacement (GIBCO), 1% (v/v) MEM non-essential amino acids (GIBCO), 0.1 mM β-mercaptoethanol (GIBCO), 1% (v/v) Pennicillin/streptomycin (Caisson)] was conditioned by γ-irradiated CF-1 mouse embryonic fibroblasts (MEF) at 37° C. for 24 hours) and CELLstart (extracellular matrix) (Invitrogen)/and STEMPRO (Invitrogen)], […] In addition, differentiation of other hESC, i.e., H9 hESC line (WiCell, Wis., USA) was also evaluated in the Matrigel (extracellular matrix)/MEF-conditioned medium with a PKC activator.

H9 hESC line = test: Evaluation of differentiation of H9 hESC line in Matrigel/MEF-conditioned medium with PKC activator; type: cell-based, human; conditions: FIG. 4

COc1ccc2c(c1)c(C1=C(c3c[nH]c4ccccc34)C(=O)NC1=O)cn2CCCN(C)C [Gö6983, 3-[1-[3-(dimethylamino)propyl]-5-methoxy-1H-indol-3-yl]-4-(1H-indol-3-yl)-1H-pyrrole-2,5-dione]
shape, existence and distribution of the cells (optical microscope, nucleus-staining with DAPI) ([1]; 5 uM PKC inhibitor replaced everyday, Matrigel-coated, FIG. 1 a-f): maintained colony shapes, which were conglomerating each other | alkaline phosphatase expression level (un-differentiated cell marker, staining) ([1]; 5 uM PKC inhibitor, FIG. 1 g-i): significant increase in alkaline phosphatase expression level | alkaline phosphatase expression level ([2]; NCM containing Gö6983, FIG. 2A f): significant increases | Oct4 expression level (immunostaining) ([2]; NCM containing Gö6983, FIG. 2B c): significant increases | cell shape under co-treatment with PKC activator (inhibition of TPA-induced differentiation) ([3]; mTeSR-1 medium treated with both 10 nM TPA and 5 uM Gö6983, FIG. 3 c and f): shapes similar to undifferentiated stem cells

CCCCCCCCCCCCCC(=O)O[C@@H]1[C@@H](C)[C@@]2(O)[C@@H](C=C(CO)C[C@]3(O)C(=O)C(C)=C[C@@H]23)[C@@H]2C(C)(C)[C@]12OC(C)=O [TPA, 12-O-tetradecanoylphorbol-13-acetate]
differentiation, shape and distribution of the cells (optical microscope) ([3]; mTeSR-1 medium, 10 nM TPA replaced everyday, 5 to 7 days, FIG. 3 b): differentiated and broadly distributed | alkaline phosphatase staining level ([3]; mTeSR-1 medium, 10 nM TPA, FIG. 3 e): very low alkaline phosphatase staining level | induction of differentiation of hESCs ([4]; CELLstart/STEMPRO medium with PKC activator): induced differentiation of hESCs | induction of differentiation of hESCs ([4]; Matrigel/MEF-conditioned medium with PKC activator): induced differentiation of hESCs | induction of differentiation of hESCs (H9 hESC line): induction of differentiation by the PKC activator was also observed
